Assay results: ChEMBL document CHEMBL4118148, “Design, synthesis and cardiovascular evaluation of some aminoisopropanoloxy derivatives of xanthone” (Bioorg Med Chem, 2018)

Key:
[1] = test system: Rattus norvegicus; test: Hypotensive activity in normotensive Wistar rat assessed as reduction in systolic blood pressure at 0.5 mg/kg, iv measured over 30 mins relative to control; assay type: functional; parameters: scale not given: the % may be the effect or the level left
[2] = test system: Rattus norvegicus; test: Cardiotoxicity in Wistar rat assessed as effect on QTC interval time at 1 mg/kg, iv measured after 15 mins (reference value: 137.7 +/- 2 ms); assay type: toxicity, organism-based; conditions: in vivo, 0.25 h
[3] = test system: Rattus norvegicus; test: Hypotensive activity in normotensive Wistar rat assessed as reduction in systolic blood pressure at 2.5 mg/kg, iv measured after 5 to 10 mins relative to control; assay type: functional; parameters: scale not given: the % may be the effect or the level left

Cl.O=c1c2ccccc2oc2c(OCC(O)CN3CCN(c4ccccn4)CC3)cccc12 (racemic)
Activity [1]: 7 - 11%

CC(C)(C)NCC(O)COc1cccc2c(=O)c3ccccc3oc12.Cl (racemic)
Time [2]: 131 ms

COc1ccc(CCNCC(O)COc2cccc3c(=O)c4ccccc4oc23)cc1OC.Cl (racemic)
Activity [3]: 9 - 12%
